Source: US20250136581A1, “SUBSTITUTED TRIAZOLE DERIVATIVE, PREPARATION METHOD THEREFOR, PHARMACEUTICAL COMPOSITION THEREOF, AND USE THEREOF” (SHANGHAI SIMR BIOTECHNOLOGY CO., LTD., priority 2021, published 2025)
Read-outs that look alike come from different tables or passages of the source.

Key:
[1] = target: α5-GABAA receptor (α5, β3, γ2 subunits) (Homo sapiens (Human), UniProt P18507+P31644); assay: Whole cell patch clamp, inverse agonist efficacy in HEK293 cells expressing α5-GABAA receptor; format: cell-based; conditions: HEK293, drug 100 nM, GABA 0.05 μM, −60 mV; read-out: Compound inverse agonist efficacy %
Excerpt: The inventors used electrophysiological methods to determine the inverse agonist efficacy of the drugs to be tested on the α5-GABAA receptor. The detailed methods are as follows:
Different subunits of the GABAA receptor were co-expressed in the HEK293 cell line to construct a fully functional GABAA receptor. The α, β, and γ subunits are essential to form a complete functional GABAA receptor. In this example, the present disclosure had established the following cell model: α5 subunit (see GenBank Accession No.: NM_000810.3 for protein sequences), β3 subunit (see GenBank Accession No.: NM_000814.5 for protein sequences), and γ2 subunit (see GenBank Accession No.: NM_000816.3 for protein sequences) were co-expressed in the HEK293 cell line, followed by screening the monoclonal stably transfected cell line. This cell line expressed a fully functional α5-GABAA receptor.
The monoclonal stably transfected HEK293 cell line expressing α5-GABAA receptor were cultured in 10 cm culture dishes and passaged when the cells grew to 80% to 90% confluent. During passaging, the culture medium was aspirated first, then 3 mL of DPBS phosphate buffer salt (Gibco™) was added to the culture dishes, and the culture dishes were shaken slightly, and DPBS was aspirated. 1 mL of trypsin (TrypLE Express, Gibco™) was added thereto, and the cells were digested at 37° C. for 1-2 minutes. Then 3 mL of complete medium (DMEM+10% FBS (Gibco™)) was added and the cells at the bottom of the culture dishes were dispersed. The cell suspension was transferred to a 15 mL centrifugal tube (Corning) and then centrifuged at 200 g for 3 minutes. The supernatant was discarded, 4 mL of complete medium was added, and the cells were gently blown and resuspended for use. If cell passaging was performed, the cell suspension was diluted at a ratio of 1:5 or 1:10. If cells for electrophysiological detection were prepared, the cell suspension was diluted in a ratio of 1:12, then added into a 24-well dish (Corning™) in which glass slides were placed and pretreated with Poly-D-Lysine, and the experiment was carried out after the cells adhered to the wall. The cells used for electrophysiology was cultured no more than 48 hours.
Drug concentration setting: The final drug concentration used in drug screening was 100 nM, and the GABA concentration was 0.05 μM. The whole cell patch clamp technique was used in electrophysiological assays, which could refer to the literature (I. Lecker, Y. Yin, D. S. Wang and B. A. Orser, British Journal of Anaesthesia, 2013, 110 (Si), i73-i81). The compositions of the extracellular solution for electrophysiology assay were as follows: 150 mM NaCl, 5 mM KCl, 2.5 mM CaCl2, 1 mM MgCl2, 10 mM HEPES, and 10 mM glucose (pH 7.4); the formulation of the electrode internal fluid for electrophysiology use was as follows: 140 mM CsCl, 11 mM EGTA, 10 mM HEPES, 2 mM CaCl2, 1 mM MgCl2, 4 mM MgATP, and 2 mM TEA (pH 7.3). The signal acquisition used an EPC-10 amplifier and the PatchMaster software (HEKA) or Axon700B amplifier and Clampex software (AXON). The recording electrode was pulled from borosilicate glass, and the electrode resistance was 4 to 6 MQ. The ALA-VC-8PG™ system was used for drug application. Single cell that grew independently was selected for recording. During recording, the cell membrane potential was clamped at −60 mV. During experiment, an extracellular solution was applied outside the cells for about 20 seconds. When the baseline reached to a stable state, the extracellular solution was switched to the GABA solution to induce an inward current. After about 20 to 40 seconds until the current was stable, the solution was switched to a corresponding drug solution to detect the effect of the drug. At last, the solution was switched to the extracellular solution, and the experiment was terminated when the baseline returned to the level before drug application. […]

[2] = target: human α5β3γ2 receptors (α5-GABAA receptor) (Homo sapiens (Human), UniProt P18507+P31644); assay: 3H-flunitrazepam competition binding, human α5β3γ2 GABAA receptor; conditions: HEK293 cell membranes, 1 nM 3H-flunitrazepam
Outline: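 HEK293 membranes stably expressing each human receptor subtype ([…]) competed against 1 nM 3H-flunitrazepam in Tris buffer, 1 h at room temperature; flumazenil defined the low-signal control. Eight-point 4-fold test-compound dilutions; GF/C filtration and scintillation counting gave IC50 by curve fitting, converted to Ki.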

Structure (SMILES) | inhibition at 0.1 µM [1] [%] | Ki ([2]; read-out: α5-GABAAR Ki) [nM] | Ki ([2]; α5-GABAAR Ki) [nM]
Cc1nnn(-c2ccc(C(F)F)cc2)c1COc1ccc(N2CCN3[C@@H]4CCC[C@@H]4NC(=O)[C@@H]3C2)nn1 [Example 197, (4aS,6aS,9aR)-3-(6-((1-(4-(Difluoromethyl)phenyl)-4-methyl-1H-1,2,3-triazol-5-yl)methoxy)pyridazin-3-yl)decahydrocyclopenta[e]pyrazino[1,2-a]pyrazin-5(1H)-one] | 52.4 | – | 4.95
Cn1nnc(-c2ccc(F)cc2)c1COc1ccc(N2CCNC(=O)C2)nn1 [Example 128, 4-(6-((4-(4-Fluorophenyl)-1-methyl-1H-1,2,3-triazol-5-yl)methoxy)pyridazin-3-yl)piperazin-2-one] | 53.9 | 22.5 | –
O=C1CN(c2ccc(OCc3cnnn3-c3ccc(C(F)F)cc3)nn2)CCN1 [Example 132, 4-(6-((1-(4-(Difluoromethyl)phenyl)-1H-1,2,3-triazol-5-yl)methoxy)pyridazin-3-yl)piperazin-2-one] | 53.2 | 12.1 | –
Cc1nnn(-c2ccc(C(F)F)cc2)c1COc1ccc(N2CCN3CC(C4CC4)NC(=O)[C@@H]3C2)nn1 (single isomer, unassigned) [Example 203] | 50.8 | 1.99 | –
Cc1nnn(-c2ccc(C(F)F)cc2)c1COc1ccc(N2CC(C(=O)NC3CCOCC3)C2)nn1 [Example 50, 1-(6-((1-(4-(Difluoromethyl)phenyl)-4-methyl-1H-1,2,3-triazol-5-yl)methoxy)pyridazin-3-yl)-N-(tetrahydro-2H-pyran-4-yl)azetidine-3-carboxamide] | 41.5 | 6.43 | –
Cc1nnn(-c2ccc(C(F)F)cc2)c1COc1ccc(N2CCN3CCN(C4COC4)C(=O)[C@@H]3C2)nn1 [Example 147, (S)-8-(6-((1-(4-(Difluoromethyl)phenyl)-4-methyl-1H-1,2,3-triazol-5-yl)methoxy)pyridazin-3-yl)-2-(oxetan-3-yl)hexahydro-2H-pyrazino[1,2-a]pyrazin-1(6H)-one] | 54.5 | 6.55 | –
Cc1nnn(-c2ccc(C(F)F)cc2)c1COc1ccc(N2CCC2=O)nn1 [Example 18, 1-(6-((1-(4-(Difluoromethyl)phenyl)-4-methyl-1H-1,2,3-triazol-5-yl)methoxy)pyridazin-3-yl)azetidin-2-one] | 51.5 | 2.13 | –
Cc1nnn(-c2ccc(C(F)F)cc2)c1COc1ccc(N2CCN3C(C(C)C)CNC(=O)[C@@H]3C2)nn1 (stereo partly drawn) [Example 207] | 51.9 | 4.92 | –
Cc1nnn(-c2ccc(C(F)F)cc2)c1COc1ccc(N2CCN(CCO)C(=O)C2)nn1 [Example 59, 4-(6-((1-(4-(Difluoromethyl)phenyl)-4-methyl-1H-1,2,3-triazol-5-yl)methoxy)pyridazin-3-yl)-1-(2-hydroxyethyl)piperazin-2-one] | 44.9 | 3.97 | –
Cc1nnn(-c2ccc(C(F)F)cc2)c1COc1ccc(N2CCN3CC(CC(C)C)NC(=O)[C@@H]3C2)nn1 (single isomer, unassigned) [Example 208] | 55.9 | 1.96 | –
Cc1nnn(-c2ccc(C(F)F)cc2)c1COc1ccc(N2CC(C(=O)O)C2)nn1 [Example 37, 1-(6-((1-(4-(Difluoromethyl)phenyl)-4-methyl-1H-1,2,3-triazol-5-yl)methoxy)pyridazin-3-yl)azetidine-3-carboxylic acid] | 50.6 | 12.3 | –
Cc1nnn(-c2ccc(C(F)F)cc2)c1COc1ccc(N2CCN(CCCC#N)C(=O)C2)nn1 [Example 143, 4-(4-(6-((1-(4-(Difluoromethyl)phenyl)-4-methyl-1H-1,2,3-triazol-5-yl)methoxy)pyridazin-3-yl)-2-oxopiperazin-1-yl)butanenitrile] | 52.5 | 1.89 | –
Cc1nnn(-c2ccc(C(F)F)cc2)c1COc1ccc(N2CC(CO)OC2=O)nn1 (stereo not drawn) [Example 66, 3-(6-((1-(4-(Difluoromethyl)phenyl)-4-methyl-1H-1,2,3-triazol-5-yl)methoxy)pyridazin-3-yl)-5-(hydroxymethyl)oxazolidin-2-one] | 52.7 | 4.07 | –
CNC(=O)[C@@H]1CN(c2ccc(OCc3c(C)nnn3-c3ccc(C(F)F)cc3)nn2)CCN1 [Example 30, (S)-4-(6-((1-(4-(Difluoromethyl)phenyl)-4-methyl-1H-1,2,3-triazol-5-yl)methoxy)pyridazin-3-yl)-N-methylpiperazine-2-carboxamide] | 41.9 | 2.72 | –

More lines, in order of falling Ki ([2]; read-out: α5-GABAAR Ki), values ahead:

inhibition at 0.1 µM [1] [%] | Ki ([2]; read-out: α5-GABAAR Ki) [nM] | Structure (SMILES) | Ki ([2]; α5-GABAAR Ki) [nM]
41.1 | 1.45 | CNS(=O)(=O)C1CCN(c2ccc(OCc3c(C)nnn3-c3ccc(C(F)F)cc3)nn2)C1 (stereo not drawn) [Example 64, 1-(6-((1-(4-(Difluoromethyl)phenyl)-4-methyl-1H-1,2,3-triazol-5-yl)methoxy)pyridazin-3-yl)-N-methylpyrrolidine-3-sulfonamide] | –
46.4 | 1.37 | COCCN1CCN(c2ccc(OCc3c(C)nnn3-c3ccc(C(F)F)cc3)nn2)CC1=O [Example 139, 4-(6-((1-(4-(Difluoromethyl)phenyl)-4-methyl-1H-1,2,3-triazol-5-yl)methoxy)pyridazin-3-yl)-1-(2-methoxyethyl)piperazin-2-one] | –
46.5 | 1.34 | Cc1nnn(-c2ccc(C(F)F)cc2)c1COc1ccc(N2CCN(CC3CCCO3)C(=O)C2)nn1 (stereo not drawn) [Example 96, 4-(6-((1-(4-(Difluoromethyl)phenyl)-4-methyl-1H-1,2,3-triazol-5-yl)methoxy)pyridazin-3-yl)-1-((tetrahydrofuran-2-yl)methyl)piperazin-2-one] | –
40.8 | 1.28 | Cc1nnn(-c2ccc(C(F)F)cc2)c1COc1ccc(N2CCNC(=O)CC2)nn1 [Example 3, 1-(6-((1-(4-(Difluoromethyl)phenyl)-4-methyl-1H-1,2,3-triazol-5-yl)methoxy)pyridazin-3-yl)-1,4-diazepan-5-one] | –
69 | 1.27 | Cc1nnn(-c2ccc(C(F)F)cc2)c1COc1ccc(N2CCN(CCCc3ccc(C#N)cc3)C(=O)C2)nn1 [Example 145, 4-(3-(4-(6-((1-(4-(Difluoromethyl)phenyl)-4-methyl-1H-1,2,3-triazol-5-yl)methoxy)pyridazin-3-yl)-2-oxopiperazin-1-yl)propyl)benzonitrile] | –
40.3 | 1.19 | Cc1nnn(-c2ccc(C(F)F)cc2)c1COc1ccc(N2CC3COCCN3C2=O)nn1 (stereo not drawn) [Example 180, 2-(6-((1-(4-(Difluoromethyl)phenyl)-4-methyl-1H-1,2,3-triazol-5-yl)methoxy)pyridazin-3-yl)hexahydro-3H-imidazo[5,1-c][1,4]oxazin-3-one] | –
43.9 | 1.15 | Cc1nnn(-c2ccc(C(F)F)cc2)c1COc1ccc(N2CC(C(=O)Nc3ccn(C)n3)C2)nn1 [Example 101, 1-(6-((1-(4-(Difluoromethyl)phenyl)-4-methyl-1H-1,2,3-triazol-5-yl)methoxy)pyridazin-3-yl)-N-(1-methyl-1H-pyrazol-3-yl)azetidine-3-carboxamide] | –
